US4246270A, “3-Fluorobenzodiazepines and compositions and uses thereof” (E. I. Du Pont de Nemours and Company, priority 1976, dated 1981)
Read-outs that look alike come from different tables or passages of the source.

What was measured:
[1] = man and other animals; cited from earlier work
[2] = tested on: auditory pinna reflex; assay: Auditory pinna reflex test (mouse); format: in vivo; details: 0.5 h, oral (intubated), 30 minutes
Protocol: (§1) Standard procedures for detecting and comparing the tranquilizer, muscle-relaxant, and sedative activity of compounds in this series for which there is a correlation with human efficacy are the following: pinna reflex tests, antipentylenetetrazole test, rat activity suppression test (RAST), muscle relaxant (anti-straub tail) test, and mouse activity suppression test (MAST).
(§2) Fasted female white mice, 5 per dose are intubated with drug at 4, 12, 36, 108 and 324 mg/kg in 1% Methocel®^- 1.25% Tween 80®, at 10 ml/kg. The auditory and tactile pinna are tested at 0.5, 2, 5 and 24 hours.
The mouse is placed on a horizontal bar 9 cm from a Galton whistle adjusted for 13 Kc. Failure to flatten the ears during one or 2 short bursts of sound constitutes loss of auditory pinna reflex.
(§3) Potency in the antipentylenetetrazole (PTZ), the MAST, and the RAST tests indicates a potent antianxiety agent. Great potency for blockade of the mouse auditory pinna reflex with little or no effect on tactile pinna reflex is characteristic of minor tranquilizers.

[3] = tested on: tactile pinna reflex; assay: Tactile pinna reflex test (mouse); format: in vivo; details: 0.5 h, oral (intubated), 30 minutes
Protocol: as §1, §2
The mouse is held by the tail and the hairs inside the right ear are touched by the fine wire stylus from a 27 gauge needle. Failure of the mouse to twitch or move the head constitutes loss of the tactile pinna reflex.
as §3

[4] = tested on: PTZ-induced clonic convulsions; assay: Antipentylenetetrazole (PTZ) test; format: in vivo; details: mouse; for ED50: 0.5 h, oral (intubated), 30 minutes before PTZ 40 mg/kg iv, read-out: Anti-PTZ, mouse ED50
Protocol: as §1
Fasted female white mice, 10 per dose are intubated with drug in vehicle as above at doses such as 0, 1, 3, 9, 27 and 81 mg/kg. Thirty minutes later the mice are dosed intravenously with PTZ (Metrazol®^1) at 40 mg/kg (ED98 for clonic convulsions). Dosed animals which remain on a 4"×4" platform for 20 seconds are considered protected. Quantal ED50 's are calculated by the moving average method.
1 Original brand of pentylenetetrazole; sterile 10% aqueous solution for parenteral injection, Knoll Pharmaceutical Company.
as §3

[5] = tested on: suppression of exploratory locomotor behavior by punishment; assay: Mouse activity suppression test (MAST); format: in vivo; details: oral, footnote *ED20%
Description: as §1
The Mouse Activity Suppression Test (MAST) is a model system designed to detect compounds with possible anti-anxiety activity in humans. […] The punishment, an electric shock applied through the mouse's paws, quickly extinguishes normal behavior.
The test procedure is modified from Boissier, et al., European J. Pharm., 4, 145-151 (1968). Female white mice, fasted 16-22 hours, are randomly distributed to fiberglass holding boxes. Mice in groups of 10-20 are dosed orally and returned to their holding boxes until test time. Test drug suspensions or solutions are prepared by sonication in 1% Methocel®. Typical dose ranges include 0.5, 1, 2, and 4 mg/k or 1, 3, 9, 27, 81 mg/kg plus a vehicle control and are selected to include one dose at which an effect such as sedation, stimulation, muscle weakness or analgesia was seen.
The test apparatus is an opaque, black plastic box with a clear lid and a stainless steel grid floor. The floor of the test box is marked off into four squares of equal size.
After dosing, a mouse is gently place in one corner of the testing box and during the next minute each time the mouse makes a full crossing from one square section of the box to another the floor is electrified with 0.4 ma current for 2.0 seconds.
The number of shocks received by each mouse is recorded and the mean number of shocks/dose (X) is determined. When X drug at any dose is statistically greater than X controls (Student's t test), antagonism of suppression obtains and the drug is presumed to have anti-anxiety activity.
as §3

[6] = tested on: morphine-induced Straub tail; assay: Muscle relaxant (anti-Straub tail) test; format: in vivo; details: 0.5 h; mouse, oral (intubated), 30 minutes; blockade of morphine-induced Straub tail (53.7 mg/kg sc)
Description: as §1
Fasted female white mice, 5 per dose are intubated with test drug. Twenty-five minutes later morphine sulfate is given subcutaneously at 53.7 mg/kg. Thirty minutes after test drug the mice are observed for presence of Straub tail. Quantal ED50 values for blockade of morphine-induced Straub tail are calculated.
as §3

[7] = tested on: line crossings suppressed by shock; assay: Rat activity suppression test (RAST); format: in vivo; details: 0.5 h, oral (intubated), 30 minutes, dose which would increase crossings 50% over controls
Description: as §1
The test apparatus consists of a circular cage with lid and with a floor of electrifiable steel bars. D.C. shock current is supplied to the bars such that touching any 2 alternate bars shocks the rat. The floor is marked to yield 4 equal pie-shaped sectors.
Fasted male white rats, 10 per dose are intubated with drug as described above for mice. Thirty minutes after dosing a rat is placed in the test apparatus and is allowed 30 seconds to transverse 25% of the floor area after which he receives a shock. The rat is allowed 5 seconds to recover from the shock, then its "line crossings" are counted for 60 seconds. The mean number of crossings per rat for each dose are determined and are compared to the mean number of crossings of the vehicle treated controls. ED50 %, the dose which would increase the number of crossings 50% over controls, is determined graphically.
as §3

[8] = warming in alcohol; cited from earlier work
[9] = 0.5 h, 30 minutes, read-out: MAST, ED20%

Row | SMILES | metabolism [1] | ED50 [2] | ED50 [3] | ED50 [4] | ED20 [5, 9] | ED50 [6] | ED50 [7] | stability (3-chloro derivative) [8] | ED20 ([5]; 1 h, 60 minutes (footnote d), read-out: MAST, ED20% (at 60 minutes)) | ED98 ([4]; intravenous PTZ challenge)
1 | CCN(CC)CCN1C(=O)CN=C(c2ccccc2F)c2cc(Cl)ccc21 [flurazepam] | metabolized in man and other animals by oxidative attack at the 3-position | – | – | – | – | – | – | – | – | –
2 | CN1C(=O)C(F)N=C(c2ccccc2Cl)c2cc(Cl)ccc21 (stereo not drawn) [X=Cl, Y=Cl, Z=CH3, 3-Fluoro-7-chloro-5-(2-chlorophenyl)-1,3-dihydro-1-methyl-2H-1,4-benzodiazepin-2-one] | – | 60 mg/kg | > 324 mg/kg | 0.09 mg/kg | – | – | – | – | – | –
3 | CNC1=Nc2ccc(Cl)cc2C(c2ccccc2)=[N+]([O-])C1 [Chlorodiazepoxide, reference compound] | – | 70 mg/kg | 320 mg/kg | 7.5 mg/kg | 8.5 mg/kg | 1.9 mg/kg | 6 mg/kg | – | – | –
4 | O=C1Nc2ccc(Cl)cc2C(c2ccccc2)=NC1Cl (stereo not drawn) [3,7-dichloro-5-phenyl-1,3-dihydro-2H-1,4-benzodiazepin-2-one] | – | – | – | – | – | – | – | extremely reactive: mere warming in alcohol caused decomposition | – | –
5 | C=CCN1C(=O)C(F)N=C(c2ccccc2)c2cc(Cl)ccc21 (stereo not drawn) [X=Cl, Y=H, Z=CH2 CHCH2, 3-Fluoro-1-(allyl)-7-chloro-5-phenyl-2H-1,4-benzodiazepin-2-one] | – | 20 mg/kg | 100 mg/kg | 6.1 mg/kg | 2.9 mg/kg | < 1 mg/kg | – | – | – | –
6 | O=C1Nc2ccc(Cl)cc2C(c2ccccc2)=NC1F (stereo not drawn) [X=Cl, Y=H, Z=H, 3-Fluoro-1,3-dihydro-7-chloro-5-phenyl-2H-1,4-benzodiazepin-2-one] | – | 2.6 mg/kg | – | 0.39 mg/kg | – | 0.1 mg/kg | – | – | 0.37 mg/kg | –
7 | CN1C(=O)CN=C(c2ccccc2)c2cc(Cl)ccc21 [Diazepam, reference compound] | – | 4 mg/kg | 187 mg/kg | 0.49 mg/kg | 1.1 mg/kg | 1 mg/kg | 1.5 mg/kg | – | – | –
8 | CN1C(=O)C(F)N=C(c2ccccc2F)c2cc(Cl)ccc21 (stereo not drawn) [X=Cl, Y=F, Z=CH3, 3-Fluoro-1,3-dihydro-1-methyl-7-chloro-5-(2-fluorophenyl)-2H-1,4-benzodiazepin-2-one] | – | 7 mg/kg | 200 mg/kg | 0.12 mg/kg | 0.05 mg/kg | 0.06 mg/kg | 0.24 mg/kg | – | – | –
9 | CN1C(=O)C(F)N=C(c2ccccc2)c2cc(Cl)ccc21 (stereo not drawn) [X=Cl, Y=H, Z=CH3, 3-Fluoro-1,3-dihydro-1-methyl-7-chloro-5-phenyl-2H-1,4-benzodiazepin-2-one] | – | 5 mg/kg | 121 mg/kg | 0.18 mg/kg | 0.25 mg/kg | 0.25 mg/kg | 0.45 mg/kg | – | – | –
10 | O=C1CN=C(c2ccccc2)c2cc([N+](=O)[O-])ccc2N1 [nitrazepam] | metabolized in man and other animals by oxidative attack at the 3-position | – | – | – | – | – | – | – | – | –
11 | O=C1Nc2ccc(Cl)cc2C(c2ccccc2)=NC1O (stereo not drawn) [Oxazepam, reference compound] | – | 2.9 mg/kg | – | 2 mg/kg | 2.7 mg/kg | 0.26 mg/kg | 2.5 mg/kg | – | – | –
12 | CN1C(=O)C(F)N=C(c2ccccc2)c2cc(Br)ccc21 (stereo not drawn) [X=Br, Y=H, Z=CH3, 3-Fluoro-7-bromo-1,3-dihydro-1-methyl-5-phenyl-2H-1,4-benzo-diazepin-2-one] | – | 1.3 mg/kg | 300 mg/kg | 0.22 mg/kg | 0.16 mg/kg | – | 1.7 mg/kg | – | – | –
13 | CCN1C(=O)C(F)N=C(c2ccccc2)c2cc(Cl)ccc21 (stereo not drawn) [X=Cl, Y=H, Z=C2 H5, 3-Fluoro-1,3-dihydro-1-ethyl-7-chloro-5-phenyl-2H-1,4-benzodiazepin-2-one] | – | 12 mg/kg | > 324 mg/kg | 0.56 mg/kg | 0.45 mg/kg | < 0.24 mg/kg | – | – | – | –
14 | O=C1Nc2ccc(Cl)cc2C(c2ccccc2F)=NC1F (stereo not drawn) [X=Cl, Y=F, Z=H, 3-Fluoro-1,3-dihydro-7-chloro-5-(2-fluorophenyl)-2H-1,4-benzodiazepin-2-one] | – | 12 mg/kg | 200 mg/kg | 0.42 mg/kg | 0.48 mg/kg | – | – | – | – | –
15 | C1CCc2nnnn2CC1 [PTZ, pentylenetetrazole, reference compound] | – | – | – | – | – | – | – | – | – | 40 mg/kg
16 | O=C1Nc2ccc(Cl)cc2C(c2ccccc2Cl)=NC1F (stereo not drawn) [X=Cl, Y=Cl, Z=H, 3-Fluoro-7-chloro-5-(2-chlorophenyl)-1,3-dihydro-2H-1,4-benzodiazepin-2-one] | – | < 4 mg/kg | > 324 mg/kg | 0.34 mg/kg | 1.15 mg/kg | < 0.33 mg/kg | – | – | – | –
17 | CNC(=O)N1C(=O)C(F)N=C(c2ccccc2)c2cc(Cl)ccc21 (stereo not drawn) [X=Cl, Y=H, Z=[drawing 57]] | – | < 4 mg/kg | 36 mg/kg | – | – | – | – | – | – | –
18 | O=C1Nc2ccc(Br)cc2C(c2ccccc2F)=NC1F (stereo not drawn) [X=Br, Y=F, Z=H, 3-Fluoro-7-bromo-5-(2-fluorophenyl)-1,3-dihydro-2H-benzodiazepin-2-one] | – | < 4 mg/kg | 300 mg/kg | 0.12 mg/kg | – | – | – | – | – | –
19 | CN1C(=O)C(F)N=C(c2ccccc2F)c2cc(Br)ccc21 (stereo not drawn) [X=Br, Y=F, Z=CH3, 3-Fluoro-7-bromo-5-(2-fluorophenyl)-1,3-dihydro-1-methyl-2H-1,4-benzodiazepin-2-one] | – | < 4 mg/kg | < 324 mg/kg | 0.06 mg/kg | – | – | – | – | – | –
20 | O=C1Nc2ccc(Br)cc2C(c2ccccc2)=NC1F (stereo not drawn) [X=Br, Y=H, Z=H, 3-Fluoro-7-bromo-1,3-dihydro-5-phenyl-2H-1,4-benzodiazepin-2-one] | – | 1.2 mg/kg | 100 mg/kg | 0.74 mg/kg | 0.04 mg/kg | 0.05 mg/kg | 0.15 mg/kg | – | – | –
